From ChEMBL document CHEMBL1124635, “A probe for octopamine receptors: synthesis of 2-[(4-azido-2,6-diethylphenyl)imino]imidazolidine and its tritiated derivative, a potent reversible-irreversible activator of octopamine-sensitive adenylate cyclase” (J Med Chem, 1989)

Tests used:
[1] = Ratio of (Ka) of octopamine to that of compound; type: ADME
[2] = Kinetic constant (Ka) of compound against octopamine receptor; type: ADME
Lampyridae [3] = experiment: V max is determined from stimulation of firefly light organ adenylate cyclase; type: functional
Lampyridae [4] = experiment: Vmax is determined from stimulation of firefly light organ adenylate cyclase; type: functional

| SMILES | Ratio [1] | Vmax (Lampyridae [3]) [%] | further results |
| --- | --- | --- | --- |
| [3H]c1c(CC)c(N=C2NCCN2)c(CC)c([3H])c1N=[N+]=[N-] | 86 | – | – |
| CCc1cc(N=[N+]=[N-])cc(CC)c1N=C1NCCN1 | 70 | – | Ka [2]: 350 nM |
| CN(CCCl)c1cc(Cl)c(NC2=NCCN2)c(Cl)c1 | – | 5 | – |
| CN(CCCl)c1cc(Cl)c(N=C2NCCN2)c(Cl)c1 | 6 | – | – |
| CCc1cccc(CC)c1NC1=NCCN1 | 12 | – | Vmax (Lampyridae [4]): 100% |
| NCC(O)c1ccc(O)cc1 (stereo not given) [OCTOPAMINE] | 1 | 100 | – |
| CCc1c(Br)c(N)c(Br)c(CC)c1NC1=NCCN1 | – | 24 | – |
| CCc1cc(N)cc(CC)c1N=C1NCCN1 | 1.3 | – | – |
| CCc1cc(N=[N+]=[N-])cc(CC)c1NC1=NCCN1 | – | 100 | Vmax (Lampyridae [3]; tested as the 3H-labelled form): 100% |
| CCc1cc(N)cc(CC)c1NC1=NCCN1 | – | 82 | – |
| CCc1c(Br)c(N)c(Br)c(CC)c1N=C1NCCN1 | 15 | – | – |
